Where two headings read alike, the source gives them in different places.
What was measured:
H2228 = experiment: Cell viability assay (CellTiter Glo), lung cancer cell line H2228; type: cell-based; details: Homo sapiens, NCI-H2228
How it was run: (§1)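 Adherent lines got 500-5,000 cells/well and suspension lines 5,000-10,000. Treatment lasted 96 h across a 9-concentration 3-fold series, top concentration up to 30 μM. % inhibition relative to DMSO-only luminescence gave IC50 values.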

Capan-1 = experiment: Cell proliferation assay, pancreatic cancer cell line Capan-1; type: cell-based; details: Homo sapiens
Experimental: (§2) Cell viability assay was performed to assess the potency of the compounds in human cancer cell lines 786-O (renal cell carcinoma) and SJSA-1 (osteosarcoma). Additional cell lines, such as those described above in Example 4 as well as various others, e.g., pancreatic cancer cell lines (Panc 02.13, BxPC-3, Panc 12, Panc 02.03, Panc 6.03, PSN-1, HPAC, and Capan-1) and prostate cancer cell lines (PC-3, DU145, 22Rv1, NCI-H660, BPH1, LNCaP, BM-1604, and MDA PCa 2b), were tested for select compounds as shown in Table 25.
(§3) The cell proliferation assays for the compounds shown Table 25 was performed according to the protocols described herein, including Examples 4 and 6.

PSN-1 = experiment: Cell proliferation assay, pancreatic cancer cell line PSN-1; type: cell-based; details: Homo sapiens, PSN1
Experimental: as §2, §3

HPAC = experiment: Cell proliferation assay, pancreatic cancer cell line HPAC; type: cell-based; details: Homo sapiens
Experimental: as §2, §3

HT-1080 luc2 = experiment: Cell viability assay (CellTiter Glo), fibrosarcoma HT-1080 luc2; type: cell-based; details: Homo sapiens
How it was run: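 HT-1080 luc2 fibrosarcoma cells seeded overnight, then exposed 96 h at 37° C to 9-point 3-fold dilutions (top up to 30 μM; DMSO ≤0.25% final). CellTiter Glo luminescence; % inhibition relative to DMSO-only wells, fitted to IC50, relative IC50 or % top inhibition.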

U-2 OS = experiment: Cell proliferation assay, U-2 OS (Table 25); type: cell-based; details: Homo sapiens, U2OS; Cell Line U-2 OS
Experimental: as §2, §3

Panc 02.03 = experiment: Cell proliferation assay, pancreatic cancer cell line Panc 02.03; type: cell-based; details: Homo sapiens
Experimental: as §2, §3

BxPC-3 = experiment: Cell proliferation assay, pancreatic cancer cell line BxPC-3; type: cell-based; details: Homo sapiens
Experimental: as §2, §3

Panc 12 = experiment: Cell proliferation assay, pancreatic cancer cell line Panc 12; type: cell-based; details: Cell Line Panc 8
Experimental: as §2, §3

143B = experiment: Cell viability assay (CellTiter Glo), osteosarcoma 143B; type: cell-based; details: Homo sapiens
How it was run: (§4)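 Cells seeded at 500-5,000/well overnight, then 96 h exposure to 9-point 3-fold dilutions from up to 30 μM (4.6 nM-30 μM), final DMSO ≤0.25%. Viability by CellTiter Glo luminescence; inhibition relative to DMSO-only cells, yielding IC50, relative IC50 or % top inhibition.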

Panc 6.03 = experiment: Cell proliferation assay, pancreatic cancer cell line Panc 6.03; type: cell-based
Experimental: as §2, §3

MiaPaCa-2 = experiment: Cell viability assay (CellTiter Glo), pancreatic carcinoma MiaPaCa-2; type: cell-based; details: Homo sapiens
How it was run: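 MiaPaCa-2 and AsPC-1 cells were seeded overnight at 37 °C and exposed for 96 h to 9-point, 3-fold dilutions from up to 30 μM (final DMSO ≤0.25%). CellTiter Glo luminescence was read, and inhibition was calculated relative to DMSO-only cells. IC50, relative IC50 or % top inhibition was derived.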

AsPC-1 = experiment: Cell viability assay (CellTiter Glo), pancreatic adenocarcinoma AsPC-1; type: cell-based; details: Homo sapiens, ASPC1
Experimental: (§5) Cell viability assay was performed to assess the potency of the compounds in human cancer cell lines KP4 (pancreatic ductal adenocarcinoma), MiaPaCa-2 (pancreatic carcinoma), AsPC-1 (pancreatic adenocarcinoma, ascites), 143B (osteosarcoma), and SJSA-1 (osteosarcoma). Selected compounds were also assayed in a human breast epithelial cell line MCF-10A, a nontumorigenic cell line as a control to assess differential activity. Cells at a density of 500-5,000 cells/well were seeded in 96-well plates and incubated at 37° C. overnight. A series of 9 different concentrations of compound stocks (500×) were created by 3-fold serial dilution in DMSO. These compounds were further diluted in culture media and then added to cells so that the final DMSO concentration was equal to 0.25% or less. After 96 hours of incubation, 50 μL of CellTiter Glo reagent (Promega) was added to each well and luminescence was measured after 10 minutes using EnVision (PerkinElmer). Compounds titrated from top concentration of up to 30 μM. The select compounds were tested initially from 30 μM as the top concentration in duplicates (range of 4.6 nM-30 μM). […] Luminescence from cells treated with DMSO alone was set as Max and % of inhibition was calculated as follows: Inhibition %=(Max-Sample value)/Max*100. Data was analyzed using XL-fit software (ID Business Solutions Ltd.). IC50, relative IC50, or % of top inhibition was calculated.
The results of the assay in the pancreatic cell lines are given in Table 15a for PANC1, Table 15b for MiaPaCa-2, and Table 15c for AsPC-1.

Panc 02.13 = experiment: Cell proliferation assay, pancreatic cancer cell line Panc 02.13; type: cell-based
Experimental: as §2, §3

SJSA-1 = experiment: Cell viability assay (CellTiter Glo), osteosarcoma SJSA-1; type: cell-based; details: Homo sapiens, 96 hours
How it was run: as §4

[1] = mouse, in vivo, ip, 15 mg/kg
Experimental: (§8) Test compounds were dissolved either in 20% (w/w) sulfobutylether-β-cyclodextrin (SBECD) pH 3-7 aqueous solution, or 5% DMSO/(30-50%) PEG400/(65-45%) water. Test compound dosing solutions were administered intraperitoneally to Balb/c nude male mice. Blood samples were collected at various time points with EDTA-K2 as anti-coagulant on ice, and centrifuged to obtain plasma samples. The plasma samples were stored at −20° C. until analysis.
(§9) Into 10 μL of test compound plasma samples were added 2 μL DMSO then 200 μL of 5 ng/mL internal standard (VTSD) (Terfenadine) in MeOH/acetonitrile. The mixture was vortexed for 1 minute and centrifuged at 4000 rpm for 15 minutes. Calibration standards were prepared by spiking known amount of test compounds into blank plasma samples. The supernatant solution was diluted 5 times with Acetonitrile/H2O (with 0.1% formic acid, 1:1, v/v), and this is the solution for LC-MS/MS analysis. The limit of quantification (LOQ) was 1 ng/mL.
(§10) Typical HPLC mobile phases were mobile phase of 5 mM NH4OAc (with 0.05% formic acid); and mobile phase B of acetonitrile (with 0.1% formic acid). The HPLC column was Kinetex C18 (30 mm×3.00 mm). Mass spectrometer was tuned for each compound in the Multiple Reaction Monitoring (MRM) scanning mode and in the electrospray ionization mode. The lower limit of quantification was 1-10 ng.
(§11) In this study, K601 (RSL3) was formulated in 5% DMSO/30% PEG 400/65% water at 1.5 mg/mL. The volume of injection via intraperitoneal route was 10 mL/kg for a dose of 15 mg/kg. […] The limit of quantification (LOQ) was 1 ng/mL.
(§12) In this study, the compound was formulated in 20% (w/w) sulfobutylether-β-cyclodextrin (SBECD), pH 5 aqueous solution at 1.5 mg/mL. The volume of injection via intraperitoneal route was 10 mL/kg for a dose of 15 mg/kg. The concentration of test compounds in plasma were analyzed by LC-MS with the method described above. The limit of quantification was 1 ng/mL.
(§13) It was formulated in 5% DMSO/50% PEG400/45% Water pH adjusted to 4 with HCl as an aqueous solution at 1.0 mg/mL. The volume of injection via intraperitoneal route was 15 mL/kg for a dose of 15 mg/kg. The concentration of test compounds in plasma were analyzed by LC-MS with the method described above. The limit of quantification was 1 ng/mL. […] The limit of quantification was 1 ng/mL.
(§14) Compounds 24 and 28 were formulated in 20% (w/w) sulfobutylether-β-cyclodextrin (SBECD) with pH 3 and pH 4, respectively, as an aqueous solution at 1.0 mg/mL. Compound 67 was in 5% DMSO/50% PEG 400/45% water pH 4 (adjusted with 12 N HCl) aqueous solution at 1.0 mg/mL. The injection volume via intraperitoneal route was 10 mL/kg for a dose of 15 mg/kg. The concentration of test compounds in plasma were analyzed by LC-MS with the method described above. The limit of quantification was 1 ng/mL.

MV-4-1 = experiment: Cell viability assay (CellTiter Glo), leukemia cell line MV-4-1; type: cell-based; details: 96 hours
How it was run: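 Leukemia cells seeded at 5000–10000/well (suspension) and incubated 96 h with compound, 9-point 3-fold dilution from top concentration up to 30 μM, final DMSO ≤0.25%. Luminescence read by CellTiter-Glo; inhibition relative to DMSO-only Max, giving IC50, relative IC50 or % top inhibition.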

HT29 = experiment: Cell viability assay (CellTiter Glo), colon cancer cell line HT29; type: cell-based; details: Homo sapiens, HT-29, 96 hours
How it was run: as §1

HL-60 = experiment: Cell viability assay (CellTiter Glo), leukemia cell line HL-60; type: cell-based; details: Homo sapiens, 96 hours
Experimental: as §5
(§6) A group of selected analogs were further profiled in cell viability assays described above in multiple additional cancer cell lines, including lung cancer, melanoma, hepatocarcinoma, pancreatic cancer, leukemia, lymphoma, ovarian cancer, breast cancer, colon cancer, and sarcoma cell lines. Initial cell seeding numbers were adjusted for each cell line. Typically, 500-5000 cells/well for adherent cells and 5000-10000/well for suspension cells were seeded in 96-well plates.
(§7) The results of the assay in the leukemia cell lines are given in Table 16a for MV-4-1 and Table 16b for HL-60 and Kasumi-1.

[2] = Pharmacokinetic (PK) studies via intravenous infusion, Sprague-Dawley rat; type: in vivo; details: male, plasma, one rat
Experimental: Test compound dosing solutions were administered via intravenous infusion to Sprague-Dawley male rat.
Into 50 μL of test compound plasma samples were added 5 μL DMSO then 200 μL of 25 ng/mL internal standard (ITSD) (Verapamil) in MeOH/acetonitrile (1:1, v/v). […] The limit of quantification (LOQ) was 1 ng/mL.
The lower limit of quantification was 1-10 ng. A typical HPLC gradient table is described below: […]
The PK profiles of compound 24 and compound 28 are shown below. […] The volume of injection via intravenous infusion route was adjusted for a dose of 2, 4 and 8 mg/kg. […] The limit of quantification was 1 ng/mL.

MCF-10A = experiment: Cell viability assay (CellTiter Glo), non-tumorigenic breast epithelial cell line MCF-10A; type: cell-based; details: Homo sapiens, 96 hours
How it was run: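 Non-tumorigenic breast epithelial MCF-10A line, exposed for 96 hours to compound (top concentration up to 30 μM, 3-fold steps, duplicates, final DMSO 0.25% or less). ATP luminescence (CellTiter Glo) normalised to DMSO controls yields IC50, relative IC50 or % top inhibition; paclitaxel served as cytotoxic control.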

Huh7 = experiment: Cell viability assay (CellTiter Glo), hepatocellular carcinoma Huh7; type: cell-based; details: Homo sapiens, Huh-7, 96 hours
How it was run: as §1

SK-OV-3 = experiment: Cell viability assay (CellTiter Glo), ovarian cancer cell line SK-OV-3; type: cell-based; details: Homo sapiens, 96 hours
How it was run: as §1

HCC1954 = experiment: Cell viability assay (CellTiter Glo), breast cancer cell line HCC1954; type: cell-based; details: Homo sapiens, 96 hours
How it was run: as §1

H1299 = experiment: Cell viability assay (CellTiter Glo), lung cancer cell line H1299; type: cell-based; details: Homo sapiens, NCI-H1299, 96 hours
How it was run: as §1

PANC1 = experiment: Cell viability assay (CellTiter Glo), pancreatic cell line PANC1; type: cell-based; details: Homo sapiens, PANC-1, 96 hours
How it was run: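 PANC1 cells seeded overnight at 37 °C, then exposed for 96 h to a 9-point 3-fold dilution series from up to 30 μM, final DMSO ≤0.25%. Viability read by CellTiter Glo luminescence. % inhibition relative to DMSO-only wells, fitted to IC50, relative IC50 or % top inhibition.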

SW480 = experiment: Cell viability assay (CellTiter Glo), colon cancer cell line SW480; type: cell-based; details: Homo sapiens, 96 hours
Experimental: as §5, §6

Raji = experiment: Cell viability assay (CellTiter Glo), lymphoma cell line Raji; type: cell-based; details: Homo sapiens, 96 hours
How it was run: as §1

Kasumi-1 = experiment: Cell viability assay (CellTiter Glo), leukemia cell line Kasumi-1; type: cell-based; details: Homo sapiens, 96 hours
Experimental: as §5, §6, §7

MDA-MB-435S = experiment: Cell viability assay (CellTiter Glo), melanoma cell line MDA-MB-435S; type: cell-based; details: Homo sapiens, 96 hours
How it was run: as §1

in vivo = details: male, Balb/c nude, mouse, ip, 15 mg/kg, Calculated Concentration
Experimental: as §8, §9, §10, §11, §12, §13, §14

REC-1 = experiment: Cell viability assay (CellTiter Glo), lymphoma cell line REC-1; type: cell-based; details: Homo sapiens, Rec1, 96 hours
How it was run: as §1

Compound: CC[C@H]1Cc2c([nH]c3ccccc23)[C@H](c2ccc(N3CCOCC3)cc2)N1C(=O)CCl [Example 117]
- IC50 (H2228; Cell Line H2228, read-out: IC50): 3.37 nM
- IC50 (Capan-1): 261 nM
- IC50 (PSN-1): 46.2 nM
- IC50 (HPAC): 48.4 nM
- IC50 (HT-1080 luc2; Cell Line HT1080, read-out: IC50): 7.16 nM
- IC50 (U-2 OS): 3600 nM
- IC50 (Panc 02.03): 148 nM
- IC50 (BxPC-3): 86.7 nM
- IC50 (Panc 12): 14.8 nM
- IC50 (143B; Cell Line 143B, read-out: IC50): 11.4 nM
- IC50 (Panc 6.03): 32.8 nM
- IC50 (MiaPaCa-2; Cell Line Mia PaCa-2, read-out: IC50): 57 nM
- IC50 (AsPC-1; Cell Line AsPC-1, read-out: IC50): 12.7 nM
- IC50 (Panc 02.13): 216 nM

Compound: COC(=O)[C@H]1Cc2c([nH]c3ccccc23)[C@H](c2ccc(S(=O)(=O)N[C@]34C[C@H]5C[C@H](C[C@H](C5)C3)C4)cc2)N1C(=O)CCl [Example 24]
- IC50 (SJSA-1): 13 nM
- exposure (Cmax, AUC) compared with K601 (RSL3) [1]: higher exposure
- IC50 (H2228; lung cancer cell line, 96 hours, CellTiter Glo, read-out: IC50 H2228): 18 nM
- IC50 (MV-4-1): 21 nM
- IC50 (HT29): 87 nM
- IC50 (HT-1080 luc2; fibrosarcoma expressing a luciferase gene, 96 hours, CellTiter Glo, read-out: IC50 HT-1080 luc2): 15 nM
- IC50 (HL-60): 16 nM
- concentration at 1.0167 hr ([2]; 1 hour-IV infusion 2 mg/kg): 51.7 ng/mL
- concentration at 1.0833 hr ([2]; 1 hour-IV infusion 2 mg/kg): 14.1 ng/mL
- concentration at 1.25 hr ([2]; 1 hour-IV infusion 2 mg/kg): 4.95 ng/mL
- concentration at 1.5 h ([2]; 1 hour-IV infusion 2 mg/kg): 2.18 ng/mL
- concentration at 1.0167 hr ([2]; 1 hour-IV infusion 4 mg/kg): 159 ng/mL
- concentration at 1.0833 hr ([2]; 1 hour-IV infusion 4 mg/kg): 36.4 ng/mL
- concentration at 1.25 hr ([2]; 1 hour-IV infusion 4 mg/kg): 13.8 ng/mL
- concentration at 1.5 h ([2]; 1 hour-IV infusion 4 mg/kg): 5.07 ng/mL
- concentration at 2 h ([2]; 1 hour-IV infusion 4 mg/kg): 2.62 ng/mL
- concentration at 1.0167 hr ([2]; 1 hour-IV infusion 8 mg/kg): 259 ng/mL
- concentration at 1.0833 hr ([2]; 1 hour-IV infusion 8 mg/kg): 97.5 ng/mL
- concentration at 1.25 hr ([2]; 1 hour-IV infusion 8 mg/kg): 34 ng/mL
- concentration at 1.5 h ([2]; 1 hour-IV infusion 8 mg/kg): 17.3 ng/mL
- concentration at 2 h ([2]; 1 hour-IV infusion 8 mg/kg): 6.52 ng/mL
- concentration at 3 h ([2]; 1 hour-IV infusion 8 mg/kg, 3 hr): 2.92 ng/mL
- IC50 (MCF-10A): 410 nM
- IC50 (Huh7): 22 nM
- IC50 (SK-OV-3): 17 nM
- IC50 (HCC1954): 39 nM
- IC50 (H1299): 3 nM
- IC50 (PANC1): 19 nM
- IC50 (SW480): 167 nM
- IC50 (143B; 96 h, osteosarcoma, 96 hours, CellTiter Glo, read-out: IC50 143B): 4 nM
- IC50 (Raji): 9 nM
- IC50 (Kasumi-1): 88 nM
- IC50 (MDA-MB-435S): 4 nM
- IC50 (MiaPaCa-2; MIA PaCa-2, pancreatic carcinoma, 96 hours, CellTiter Glo, read-out: IC50 MiaPaCa-2): 2 nM
- IC50 (AsPC-1; pancreatic adenocarcinoma, ascites, 96 hours, CellTiter Glo, read-out: IC50 AsPC-1): 19 nM
- concentration at 0.5 h (in vivo): 332 ng/mL
- concentration at 1 h (in vivo): 355 ng/mL
- concentration at 2 h (in vivo): 50.5 ng/mL
- concentration at 4 h (in vivo): 3.41 ng/mL
- concentration at 0.5 h (in vivo; Mean): 464 ng/mL
- concentration at 1 h (in vivo; Mean): 317 ng/mL
- concentration at 2 h (in vivo; Mean): 44.5 ng/mL
- concentration at 4 h (in vivo; Mean): 4.56 ng/mL
- IC50 (REC-1): 33 nM
